This note sets out measurements from ChEMBL document CHEMBL5614394, “Novel pleuromutilin derivatives conjugated with phenyl-sulfide and boron-containing moieties as potent antibacterial agents against antibiotic-resistant bacteria” (Eur J Med Chem, 2024).

Holding throughout (assay type): functional
In assay [1] the test system is Staphylococcus simulans. The assay is described as follows: Antibacterial activity against pleuromutilin-resistant Staphylococcus simulans isolate 55-1 harboring cfr+ genotype assessed as inhibition of visible growth of bacteria incubated for 24 hrs by CLSI protocol based broth-dilution method.
Assay [2] relates to Enterococcus faecium. The assay is described as follows: Antibacterial activity against pleuromutilin-resistant Enterococcus faecium 18FJZ1-1 harboring (lsa(E)+) genotype assessed as inhibition of visible growth of bacteria incubated for 24 hrs by CLSI protocol based broth-dilution method.
Assay [3] relates to Enterococcus faecium. As to the kind of experiment: Antibacterial activity against pleuromutilin-resistant Enterococcus faecium 18SC29-2 harboring (lsa(E)-) genotype assessed as inhibition of visible growth of bacteria incubated for 24 hrs by CLSI protocol based broth-dilution method.
In assay [4] the test system is Staphylococcus aureus. As to the kind of experiment: Antibacterial activity against methicillin-resistant Staphylococcus aureus J1 harboring (lsa(E)+) genotype assessed as inhibition of visible growth of bacteria incubated for 24 hrs by CLSI protocol based broth-dilution method.
The test system of assay [5] is Staphylococcus epidermidis. The assay is described as follows: Antibacterial activity against Staphylococcus epidermidis ATCC 12228 assessed as inhibition of visible growth of bacteria incubated for 24 hrs by CLSI protocol based broth-dilution method.
In assay [6] the test system is Staphylococcus aureus. The assay is described as follows: Antibacterial activity against Staphylococcus aureus ATCC 29213 assessed as inhibition of visible growth of bacteria incubated for 24 hrs by CLSI protocol based broth-dilution method.

≈ marks a conversion by molar mass, not a printed value. A value given as a limit tells only on which side of the number the result lay.

By MIC is commonly meant the lowest concentration found to suppress growth. Regarding `C=C[C@]1(C)C[C@@H](OC(=O)CSC(C)(C)CNC(=O)[C@H](N)C(C)C)[C@]2(C)[C@H](C)CC[C@]3(CCC(=O)[C@H]32)[C@@H](C)[C@@H]1O` [VALNEMULIN], the MIC in assay [1] is 8 µg/mL (≈ 14.2 µM); in assay [2] it was 8 µg/mL (≈ 14.2 µM); in assay [3], at most 0.06 µg/mL; in assay [4], above 32 µg/mL.

`C=C[C@]1(C)C[C@@H](OC(=O)CS[C@@H]2C[C@H]3CC[C@@H](C2)N3C)[C@]2(C)[C@H](C)CC[C@]3(CCC(=O)[C@H]32)[C@@H](C)[C@@H]1O` [RETAPAMULIN]: the MIC is 32 µg/mL (≈ 61.8 µM) in assay [1], 32 µg/mL (≈ 61.8 µM) in assay [2], 0.125 µg/mL (≈ 0.241 µM) in assay [3] and above 32 µg/mL in assay [4].

Consider `C=C[C@]1(C)C[C@@H](OC(=O)CSCCN(CC)CC)[C@]2(C)[C@H](C)CC[C@]3(CCC(=O)[C@H]32)[C@@H](C)[C@@H]1O` [TIAMULIN], for which the MIC in assay [1] was above 32 µg/mL; in assay [2], above 32 µg/mL; in assay [3], 2 µg/mL (≈ 4.05 µM); in assay [4], above 32 µg/mL.

On to `C=C[C@]1(C)C[C@@H](OC(=O)CSC(C)(C)CNC(=O)c2ccc3c(c2)B(O)OC3)[C@]2(C)[C@H](C)CC[C@]3(CCC(=O)[C@H]32)[C@@H](C)[C@@H]1O`, for which the MIC in assay [5] worked out at 0.063 µg/mL (≈ 0.101 µM); in assay [1], 2 µg/mL (≈ 3.2 µM); in assay [2], 8 µg/mL (≈ 12.8 µM); in assay [3] it was 0.125 µg/mL (≈ 0.2 µM); in assay [4], 16 µg/mL (≈ 25.6 µM); in assay [6], 0.063 µg/mL (≈ 0.101 µM).
